One data set has as its system Kasumi −1 (leukemia). Nature of the data set: Cell proliferation, Kasumi-1 leukemia cells. The data set is classed as cell-based. Particulars: Homo sapiens, read-out: IC50 category. From the text: Effects of Compound-5B on cell proliferation in additional cancer cells: To determine whether Compound-5B would have broad based anticancer activity, we study whether Compound-5B would be effective at inhibiting cell proliferation in a variety of cancers overexpressing Id-1. The assay conditions used were identical to those presented for breast and pancreatic cancers. Indeed, Compound-5B was potent at inhibiting cell proliferation in blood cancer (leukemia), glioblastoma, prostate, and ovarian cancer.

A further data set has as its system cannabinoid receptors. Nature of the data set: Cannabinoid receptor binding.
A further data set relates to SW1990. Nature of the data set: CellTiter-Glo cell proliferation, SW1990 pancreatic cancer cells. The data set is classed as cell-based. Particulars: Homo sapiens, read-out: IC50 category. The text has this: (§1) Cell culture and treatment of pancreatic cancer cell lines: Pancreatic cancer cells lines BxPC-3, SW1990, and PANC-1 used in the experiments presented herein can be obtained from ATCC. The cells can be cultured and passaged in complete growth medium (RPMI-1640, Dulbecco's Modified Eagle Medium, or Leibovitz's L-15 medium) that has been supplemented with fetal bovine serum to a final concentration of 10%.
Effects of Compound-5B on proliferation and Id-1 expression in pancreatic cell lines. Compound-5B was next tested for inhibition of cell viability/proliferation in the three pancreatic cancer cell lines and two primary patient-derived cancer cell lines. Compound-5B inhibited cell viability/proliferation of all the cancer cell lines (Table 2). The culturing condition for the pancreatic cell lines was similar to those used in the breast cancer lines, with the exception of the primary patient-derived pancreatic cancer cell lines (PANC9 and PANC13). […] Cell proliferation of pancreatic cells in the presence of drug was measured using the CellTiter-Glo luminescent Assay and IC50 values were calculated (Table 2). […]
A general note: In ATP-based viability assays light output follows the ATP content of the culture.

The next data set has as its system PANC-1. Nature of the data set: CellTiter-Glo cell proliferation, PANC-1 pancreatic cancer cells. The data set is classed as cell-based, human.
Description: as §1
Effects of Compound-5B on proliferation and Id-1 expression in pancreatic cell lines. Compound-5B was next tested for inhibition of cell viability/proliferation in the three pancreatic cancer cell lines and two primary patient-derived cancer cell lines. Compound-5B inhibited cell viability/proliferation of all the cancer cell lines (Table 2). The culturing condition for the pancreatic cell lines was similar to those used in the breast cancer lines, with the exception of the primary patient-derived pancreatic cancer cell lines (PANC9 and PANC13). For determining inhibition of cell proliferation in patient-derived pancreatic cancer cells were cultured in a T75 ultra low attachment flasks with DMEM/F12 media supplemented with B27, penicillin/streptomycin (10,000 u/mL), 50 µg/mL human epidermal growth factor (hEGF), 50 μg/mL human fibroblast growth factor, and 5 μg/mL heparin. Cells were plated in a 384-well plate and incubated for three days to promote the formation of tumorspheres. Cells were then treated with Compound-5B for three days. Cell proliferation of pancreatic cells in the presence of drug was measured using the CellTiter-Glo luminescent Assay and IC50 values were calculated (Table 2). The IC50 and corresponding 95% confidence limits (CL) were calculated using non-linear regression analysis.

A short description of a further data set: IV pharmacokinetics. As to conditions: 1 mpk. The data set is classed as in vivo.

Description for cannabinoid receptors: Eurofin's Kinome scan assay was used to screen Compound-5B against 468 kinases at 1 μM and 10 μM concentrations. […] In order to understand any potential pharmacological cross reactivity, a known contributor to clinical adverse drug reactions Compound-5B was tested in SAFETY scan E/IC50 ELECT.

A word on the IC50: it is the point on the concentration scale where inhibition reaches its midpoint. As to `CCCCCCC(C)(C)c1cc(O)c(C(=O)Nc2ccccc2)c(O)c1` [Compound 5B, 2,6-dihydroxy-4-(2-methyloctan-2-yl)-N-phenylbenzamide], the IC50 in the data set with Kasumi −1 (leukemia) is under 500 nM; with SW1990 it was under 500 nM; in the data set on PANC-1 (Homo sapiens, PANC-1, read-out: IC50 category), under 500 nM. Besides, the “binding to the cannabinoid receptors” value in the data set on cannabinoid receptors is given as “does not bind”. Moreover, the “improvement in potency (IC50) compared to the parent compound CBD” value in the data set with PANC-1 (PANC-1 (by context)) is 38 fold. For the same compound, the clearance entry in “IV pharmacokinetics” was “low”. The exposure entry in the data set “IV pharmacokinetics” is listed as “good”. The half-life entry in “IV pharmacokinetics” is “acceptable”.

The values above are taken from US12612358B2, “Resorcinol-based compounds and uses thereof” (priority 2020, dated 2026).
